The results in this text go back to ChEMBL document CHEMBL1201862, “PubChem BioAssay data set” (2004).

In assay [1] the target is T1, Apoptotic protease-activating factor 1 (Homo sapiens, UniProt O14727).
T1 sequence (O14727 whole entry): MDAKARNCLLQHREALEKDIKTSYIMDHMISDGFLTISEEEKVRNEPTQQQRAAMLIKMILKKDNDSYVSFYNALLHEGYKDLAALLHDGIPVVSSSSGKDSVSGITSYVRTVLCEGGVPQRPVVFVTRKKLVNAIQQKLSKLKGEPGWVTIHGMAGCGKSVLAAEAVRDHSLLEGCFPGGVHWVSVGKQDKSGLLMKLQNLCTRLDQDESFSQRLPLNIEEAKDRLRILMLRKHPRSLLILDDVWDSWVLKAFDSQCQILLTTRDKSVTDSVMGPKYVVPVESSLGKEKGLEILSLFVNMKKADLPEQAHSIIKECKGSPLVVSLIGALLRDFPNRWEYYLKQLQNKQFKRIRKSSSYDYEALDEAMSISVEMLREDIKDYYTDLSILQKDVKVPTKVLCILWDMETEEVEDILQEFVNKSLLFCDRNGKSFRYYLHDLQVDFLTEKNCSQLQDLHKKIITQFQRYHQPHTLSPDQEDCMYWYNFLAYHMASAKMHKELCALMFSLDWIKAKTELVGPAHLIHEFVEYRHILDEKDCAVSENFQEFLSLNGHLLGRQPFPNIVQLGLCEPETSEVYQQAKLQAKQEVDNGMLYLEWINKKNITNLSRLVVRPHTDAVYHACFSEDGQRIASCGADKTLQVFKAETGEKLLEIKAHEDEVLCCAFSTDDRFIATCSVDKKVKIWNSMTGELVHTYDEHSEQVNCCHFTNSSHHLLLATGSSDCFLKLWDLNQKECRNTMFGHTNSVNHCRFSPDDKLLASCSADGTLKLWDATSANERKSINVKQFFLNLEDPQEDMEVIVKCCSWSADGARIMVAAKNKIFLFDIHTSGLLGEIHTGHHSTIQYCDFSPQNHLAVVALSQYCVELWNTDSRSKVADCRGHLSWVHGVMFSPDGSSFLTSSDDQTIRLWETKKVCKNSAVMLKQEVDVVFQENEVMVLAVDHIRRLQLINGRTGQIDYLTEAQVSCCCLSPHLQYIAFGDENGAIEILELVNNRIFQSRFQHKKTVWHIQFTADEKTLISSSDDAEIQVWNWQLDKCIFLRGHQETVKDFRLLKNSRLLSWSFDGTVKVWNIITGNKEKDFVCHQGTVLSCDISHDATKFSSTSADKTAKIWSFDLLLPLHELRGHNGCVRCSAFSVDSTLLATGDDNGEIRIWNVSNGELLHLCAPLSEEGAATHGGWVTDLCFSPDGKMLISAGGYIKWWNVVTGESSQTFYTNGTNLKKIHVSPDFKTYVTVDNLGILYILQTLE
The format is functional.

Assay [2] in a line: NIH-3T3 fibroblast cytotoxicity, dose response, cytotoxicity control, cell-based, fluorescence, Alamar Blue, secondary assay (AID 2327).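 Also: NIH-3T3 mouse fibroblasts cultured with fluconazole at 8 µg/mL.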 Type of assay: functional. A general note: Resazurin is reduced to fluorescent resorufin, in cell work by metabolically active cells.
Assay [3] in a line: fluconazole-exposed Candida albicans growth modulators – fluorescence, retest, confirmation (AID 2467). Type of assay: functional, cell-based.
Assay [4] has as its target T2, Serine/threonine-protein phosphatase (Candida dubliniensis (strain CD36 / CBS 7987 / NCPF 3949 / NRRLY-17841) (Yeast), UniProt B9W6M3).
T2 sequence (B9W6M3 whole entry): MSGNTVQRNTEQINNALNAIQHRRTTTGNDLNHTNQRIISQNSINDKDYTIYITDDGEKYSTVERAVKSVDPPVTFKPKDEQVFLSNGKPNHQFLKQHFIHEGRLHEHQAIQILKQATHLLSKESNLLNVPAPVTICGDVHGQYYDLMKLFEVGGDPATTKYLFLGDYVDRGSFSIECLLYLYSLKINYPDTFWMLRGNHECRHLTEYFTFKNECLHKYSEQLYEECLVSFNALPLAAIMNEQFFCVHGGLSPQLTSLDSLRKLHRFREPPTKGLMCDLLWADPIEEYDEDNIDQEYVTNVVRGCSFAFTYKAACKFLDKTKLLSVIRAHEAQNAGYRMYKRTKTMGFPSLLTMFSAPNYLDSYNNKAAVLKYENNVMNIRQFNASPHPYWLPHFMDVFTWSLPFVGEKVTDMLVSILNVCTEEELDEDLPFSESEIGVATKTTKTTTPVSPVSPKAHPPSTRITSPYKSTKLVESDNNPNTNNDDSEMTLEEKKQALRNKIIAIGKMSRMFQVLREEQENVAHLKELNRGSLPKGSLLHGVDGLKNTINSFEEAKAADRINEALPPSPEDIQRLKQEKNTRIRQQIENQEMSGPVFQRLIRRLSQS
In words: blockers of CaCl2-induced CDRE-lacZ signaling – S. cerevisiae, luminescence, secondary, dose response (AID 2388).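 Also: yeast reporter cells carrying a calcineurin-responsive lacZ construct stimulated with calcium chloride; luminescent beta-galactosidase reporter signal in whole cells rather than isolated phosphatase activity; potency for inhibition where a drop in reporter signal means calcineurin blockade.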 Type of assay: functional, cell-based.

Assay [5] deals with T3, Exodeoxyribonuclease V (Escherichia coli (strain K12), UniProt P04993+P07648+P08394).
T3 sequence (P04993 whole entry): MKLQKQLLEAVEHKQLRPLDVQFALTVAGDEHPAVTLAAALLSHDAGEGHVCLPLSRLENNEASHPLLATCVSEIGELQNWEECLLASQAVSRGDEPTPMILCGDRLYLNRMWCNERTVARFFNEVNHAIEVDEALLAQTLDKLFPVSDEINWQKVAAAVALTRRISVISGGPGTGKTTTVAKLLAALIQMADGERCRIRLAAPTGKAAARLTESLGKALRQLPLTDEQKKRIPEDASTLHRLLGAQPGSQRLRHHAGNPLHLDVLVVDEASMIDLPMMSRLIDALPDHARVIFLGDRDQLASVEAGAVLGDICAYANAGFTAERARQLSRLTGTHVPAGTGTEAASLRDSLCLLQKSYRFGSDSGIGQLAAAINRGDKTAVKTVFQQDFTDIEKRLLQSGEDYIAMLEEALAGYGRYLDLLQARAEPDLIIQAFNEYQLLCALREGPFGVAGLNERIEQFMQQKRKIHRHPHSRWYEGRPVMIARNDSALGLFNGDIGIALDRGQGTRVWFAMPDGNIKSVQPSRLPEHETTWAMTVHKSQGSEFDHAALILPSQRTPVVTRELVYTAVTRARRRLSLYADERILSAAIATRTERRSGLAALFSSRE
T3 sequence (P07648 whole entry): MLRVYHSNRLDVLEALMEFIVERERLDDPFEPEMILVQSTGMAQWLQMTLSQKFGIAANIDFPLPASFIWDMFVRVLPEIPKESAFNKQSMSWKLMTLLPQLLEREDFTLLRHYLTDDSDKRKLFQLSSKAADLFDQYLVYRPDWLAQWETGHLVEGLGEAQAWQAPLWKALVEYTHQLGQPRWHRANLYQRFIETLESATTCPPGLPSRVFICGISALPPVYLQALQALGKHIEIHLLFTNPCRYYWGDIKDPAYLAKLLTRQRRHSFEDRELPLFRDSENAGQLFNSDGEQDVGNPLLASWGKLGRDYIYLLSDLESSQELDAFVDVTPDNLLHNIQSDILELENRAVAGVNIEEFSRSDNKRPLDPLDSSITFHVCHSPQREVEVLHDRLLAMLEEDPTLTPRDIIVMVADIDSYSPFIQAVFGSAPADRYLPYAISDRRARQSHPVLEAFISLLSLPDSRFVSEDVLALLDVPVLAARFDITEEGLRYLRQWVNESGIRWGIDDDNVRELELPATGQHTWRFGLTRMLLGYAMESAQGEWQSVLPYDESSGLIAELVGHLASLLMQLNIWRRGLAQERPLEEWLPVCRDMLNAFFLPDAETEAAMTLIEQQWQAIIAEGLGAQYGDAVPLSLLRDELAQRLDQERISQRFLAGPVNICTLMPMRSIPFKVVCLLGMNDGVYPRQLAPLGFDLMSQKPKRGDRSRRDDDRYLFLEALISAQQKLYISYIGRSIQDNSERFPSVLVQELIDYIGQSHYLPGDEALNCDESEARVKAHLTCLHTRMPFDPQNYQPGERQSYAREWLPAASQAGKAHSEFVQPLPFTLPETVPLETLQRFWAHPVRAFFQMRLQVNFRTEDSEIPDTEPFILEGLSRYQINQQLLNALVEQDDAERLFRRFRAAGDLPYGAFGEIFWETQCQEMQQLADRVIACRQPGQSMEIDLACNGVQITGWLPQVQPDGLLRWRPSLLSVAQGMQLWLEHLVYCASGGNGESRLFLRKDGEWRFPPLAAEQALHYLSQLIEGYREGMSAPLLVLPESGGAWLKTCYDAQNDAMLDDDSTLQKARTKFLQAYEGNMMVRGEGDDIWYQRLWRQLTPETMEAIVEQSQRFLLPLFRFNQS
T3 sequence (P08394 whole entry): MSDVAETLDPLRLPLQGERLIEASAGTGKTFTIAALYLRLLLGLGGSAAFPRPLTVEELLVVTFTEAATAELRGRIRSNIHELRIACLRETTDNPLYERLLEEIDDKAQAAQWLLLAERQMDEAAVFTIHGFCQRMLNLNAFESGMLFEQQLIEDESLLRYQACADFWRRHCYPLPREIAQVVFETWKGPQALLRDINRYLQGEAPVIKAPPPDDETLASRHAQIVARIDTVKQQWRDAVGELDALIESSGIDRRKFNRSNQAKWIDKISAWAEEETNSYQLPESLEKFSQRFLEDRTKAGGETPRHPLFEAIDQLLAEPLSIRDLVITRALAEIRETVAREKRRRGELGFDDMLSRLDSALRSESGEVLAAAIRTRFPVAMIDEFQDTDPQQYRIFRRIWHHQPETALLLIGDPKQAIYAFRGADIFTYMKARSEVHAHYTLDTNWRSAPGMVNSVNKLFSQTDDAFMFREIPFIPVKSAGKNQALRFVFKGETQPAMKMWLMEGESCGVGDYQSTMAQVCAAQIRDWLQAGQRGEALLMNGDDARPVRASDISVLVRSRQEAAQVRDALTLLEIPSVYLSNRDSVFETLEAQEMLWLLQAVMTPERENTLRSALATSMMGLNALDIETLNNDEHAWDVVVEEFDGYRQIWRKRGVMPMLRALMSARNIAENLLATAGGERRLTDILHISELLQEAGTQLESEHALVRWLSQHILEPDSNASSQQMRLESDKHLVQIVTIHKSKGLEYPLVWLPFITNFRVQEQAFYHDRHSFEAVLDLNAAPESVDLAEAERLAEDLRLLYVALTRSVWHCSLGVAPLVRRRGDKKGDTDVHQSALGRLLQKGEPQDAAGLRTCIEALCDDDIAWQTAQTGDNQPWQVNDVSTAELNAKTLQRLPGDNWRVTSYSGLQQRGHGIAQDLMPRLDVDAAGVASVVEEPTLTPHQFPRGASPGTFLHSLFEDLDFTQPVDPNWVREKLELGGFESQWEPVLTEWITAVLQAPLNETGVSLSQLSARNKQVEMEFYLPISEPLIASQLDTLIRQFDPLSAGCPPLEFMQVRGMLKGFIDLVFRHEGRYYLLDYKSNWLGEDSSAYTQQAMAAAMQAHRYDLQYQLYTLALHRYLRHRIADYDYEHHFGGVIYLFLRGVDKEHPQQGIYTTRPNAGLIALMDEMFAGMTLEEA
In words: RecBCD inhibition via phage-restricted bacterial growth – absorbance, V66 E. coli, mutant T4 phage, counter-screen for AddAB inhibitor project, dose response (AID 492957). The format is functional, cell-based, Escherichia coli str. K-12 substr. MG1655.

Assay [6] can be described thus: Counterscreen for AddAB inhibitors: absorbance-based bacterial cell-based high throughput dose response assay for inhibitors of bacterial viability. [Related pubchem assays (depositor defined):AID435030, AID449728, AID449731, AID488942, AID488955, AID488956]. Type of assay: functional. (Counterscreens check selectivity or assay interference.)
In assay [7] the target is ATP-dependent molecular chaperone HSP82 (Candida albicans (strain WO-1) (Yeast), UniProt C4YTQ8). In words: steroid-induced GRE reporter decrease in yeast – S. cerevisiae, luminescence, Hsp90 inhibitor project, dose response (AID 2400).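 Also: beta-galactosidase luminescence from glucocorticoid response element reporter as proxy for Hsp90 function; inhibitor potency where signal loss means Hsp90 inhibition.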 Type of assay: functional, cell-based.

Active and inactive are the calls of the source. Rule as the data show it, for most assays here: actives have a measured EC50 and inactives only a lower limit.

ATP-dependent molecular chaperone HSP82, sequence (C4YTQ8 whole entry): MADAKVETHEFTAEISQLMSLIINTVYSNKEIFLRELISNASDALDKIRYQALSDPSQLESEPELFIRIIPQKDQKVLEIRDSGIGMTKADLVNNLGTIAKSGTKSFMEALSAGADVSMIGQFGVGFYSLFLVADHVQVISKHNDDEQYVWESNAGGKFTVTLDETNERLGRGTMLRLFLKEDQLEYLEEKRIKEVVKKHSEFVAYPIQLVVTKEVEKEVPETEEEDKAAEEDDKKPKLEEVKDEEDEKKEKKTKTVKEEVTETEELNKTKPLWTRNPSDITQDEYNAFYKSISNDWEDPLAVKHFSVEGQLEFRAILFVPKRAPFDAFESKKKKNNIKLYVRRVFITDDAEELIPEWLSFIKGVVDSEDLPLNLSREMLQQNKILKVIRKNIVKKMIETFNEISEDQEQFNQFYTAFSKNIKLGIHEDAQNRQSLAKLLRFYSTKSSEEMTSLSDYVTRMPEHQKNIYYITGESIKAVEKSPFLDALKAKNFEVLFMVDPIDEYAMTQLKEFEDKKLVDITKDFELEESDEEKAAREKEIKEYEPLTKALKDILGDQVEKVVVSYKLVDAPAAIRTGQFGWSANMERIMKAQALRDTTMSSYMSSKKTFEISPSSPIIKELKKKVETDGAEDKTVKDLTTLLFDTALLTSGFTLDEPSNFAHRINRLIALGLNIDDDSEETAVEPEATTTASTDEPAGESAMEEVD

For orientation: IC50 means the concentration that gives 50% inhibition. On to `COc1ccc(CC(=O)N(Cc2ccccc2)c2ccc(C)cc2)cc1S(=O)(=O)N1CCOCC1`, for which the IC50 in assay [1] was 43.7 µM (active).
For orientation: EC50 means the concentration giving half of the maximal effect. Turning to `CC(=O)NC1CCCN(O)C(=O)/C=C(\C)CCOC(=O)C(NC(C)=O)CCCN(O)C(=O)/C=C(\C)CCOC(=O)C(NC(C)=O)CCCN(O)C(=O)/C=C(\C)CCOC1=O` (configuration not stated), the EC50 in assay [2] was > 160 µM (inactive); in assay [3], 0.742 µM (active); in assay [4], > 180 µM (inactive); in assay [7], > 160 µM (inactive). For the same compound, the IC50 in assay [5] and in assay [6] was > 119 µM (inactive) in each case.
